Assay results: patent US10780074B2, “Compounds and uses thereof” (Sunovion Pharmaceuticals Inc., priority 2017, dated 2020)
Structures can show the parent of a compound that is named as a salt. Where two headings read alike, the source gives them in different places.

Test system: behaviors of compound-treated mice
Assay: Neuropharmacological Assay (SmartCube)
Format: in vivo
Conditions: for minimal effective dose: Mus musculus, ip, 0.25 h, dose having 50% or more total activity in SmartCube, read-out: MED (minimal effective dose)
Outline: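 Behavioral signatures were captured automatically by video, and each drug class received a probability for the best of three i.p. doses given 15 min pre-test (vehicle: Pharmasolve/PEG/propylene glycol). Potency is given as MED, the lowest mpk dose (typically 0.3–30) reaching 50% or more total activity.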

[1] = SmartCube, i.p. 15 min before test, most efficacious dose(s)
[2] = i.p. 15 min before behavioral test, most efficacious dose(s) of 3 doses

Compound	minimal effective dose [mg/kg]	AD: ADHD (probability that activity matches class) [1]	AG: analgesic (probability that activity matches class) [1]	AX: anxiolytic (probability that activity matches class) [1]	CE: cognitive enhancer (probability that activity matches class) [1]	DP: anti-depressant (probability that activity matches class) [1]	MS: mood stabilizer (probability that activity matches class) [1]	PS: anti-psychotic (probability that activity matches class) [1]	SD: sedative hypnotic (probability that activity matches class) [1]	UN: uncharacterized CNS activity (probability that activity matches class) [1]	minimal effective dose (i.p.) [mg/kg]	AD: ADHD (probability that activity matches class) [2]	AG: analgesic (probability that activity matches class) [2]	AX: anxiolytic (probability that activity matches class) [2]	CE: cognitive enhancer (probability that activity matches class) [2]	DP: anti-depressant (probability that activity matches class) [2]	MS: mood stabilizer (probability that activity matches class) [2]	PS: anti-psychotic (probability that activity matches class) [2]	SD: sedative hypnotic (probability that activity matches class) [2]	UN: uncharacterized CNS activity (probability that activity matches class) [2]
CNC[C@@H]1OCCc2c1cccc2-n1cccn1 [Compound 186, (R)-1-(5-(1H-pyrazol-1-yl)isochroman-1-yl)-N-methylmethanamine]	10 to 30	+ (LOQ ≤ + <5%)	+ (LOQ ≤ + <5%)	++ (5% ≤ ++ <25%)	+ (LOQ ≤ + <5%)	+ (LOQ ≤ + <5%)	+ (LOQ ≤ + <5%)	+ (LOQ ≤ + <5%)	+ (LOQ ≤ + <5%)	+ (LOQ ≤ + <5%)										
CNCC1OCCc2ccc(-c3ccncn3)cc21 (stereo not shown) [Compound 58, N-Methyl-1-(7-(pyrimidin-4-yl)isochroman-1-yl)methanamine hydrochloride salt]											10 to 30	+ (LOQ ≤ + <5%)	+ (LOQ ≤ + <5%)	++ (5% ≤ ++ <25%)	+ (LOQ ≤ + <5%)	+ (LOQ ≤ + <5%)	+ (LOQ ≤ + <5%)	+ (LOQ ≤ + <5%)	+ (LOQ ≤ + <5%)	++++ (50% ≤ ++++)
CNC[C@@H]1OCCc2cc(-c3ncccn3)ccc21 [Compound 21, (R)—N-Methyl-1-(6-(pyrimidin-2-yl)isochroman-1-yl)methanamine hydrochloride salt]											10 to 30	+ (LOQ ≤ + <5%)	++ (5% ≤ ++ <25%)	++ (5% ≤ ++ <25%)	++ (5% ≤ ++ <25%)	++ (5% ≤ ++ <25%)	+ (LOQ ≤ + <5%)	+ (LOQ ≤ + <5%)	+ (LOQ ≤ + <5%)	+ (LOQ ≤ + <5%)
CNC[C@H]1OCCc2c(-c3ccon3)cccc21 (single isomer, unassigned) [Compound 91, hydrochloride salt]											≤ 3	++++ (50% ≤ ++++)	+ (LOQ ≤ + <5%)	++ (5% ≤ ++ <25%)	+ (LOQ ≤ + <5%)	++++ (50% ≤ ++++)	+ (LOQ ≤ + <5%)	+ (LOQ ≤ + <5%)	++ (5% ≤ ++ <25%)	+++ (25% ≤ +++ <50%)
NC[C@H]1OCc2c(-c3ccncc3)cccc21 (single isomer, unassigned) [Compound 38, hydrochloride salt]											≤ 3	++ (5% ≤ ++ <25%)	++ (5% ≤ ++ <25%)	+++ (25% ≤ +++ <50%)	+ (LOQ ≤ + <5%)	++++ (50% ≤ ++++)	+ (LOQ ≤ + <5%)	+ (LOQ ≤ + <5%)	++ (5% ≤ ++ <25%)	++ (5% ≤ ++ <25%)
CNC[C@@H]1OCCCc2c(-c3ccncc3)cccc21 (single isomer, unassigned) [Compound 148]											10 to 30	+ (LOQ ≤ + <5%)	+ (LOQ ≤ + <5%)	++ (5% ≤ ++ <25%)	+ (LOQ ≤ + <5%)	+ (LOQ ≤ + <5%)	+ (LOQ ≤ + <5%)	+ (LOQ ≤ + <5%)	+ (LOQ ≤ + <5%)	+ (LOQ ≤ + <5%)
NC[C@H]1OCCc2c(-c3ncco3)cccc21 [Compound 107, (S)-(5-(Oxazol-2-yl)isochroman-1-yl)methanamine hydrochloride salt]											10 to 30	+ (LOQ ≤ + <5%)	+ (LOQ ≤ + <5%)	+ (LOQ ≤ + <5%)	+ (LOQ ≤ + <5%)	+++ (25% ≤ +++ <50%)	+ (LOQ ≤ + <5%)	+ (LOQ ≤ + <5%)	+ (LOQ ≤ + <5%)	+ (LOQ ≤ + <5%)
NC[C@H]1OCCc2c(-c3cncs3)cccc21 (single isomer, unassigned) [Compound 71, hydrochloride salt]											≤ 3	+++ (25% ≤ +++ <50%)	+ (LOQ ≤ + <5%)	++ (5% ≤ ++ <25%)	+ (LOQ ≤ + <5%)	++ (5% ≤ ++ <25%)	+ (LOQ ≤ + <5%)	+ (LOQ ≤ + <5%)	++ (5% ≤ ++ <25%)	++++ (50% ≤ ++++)
NC[C@@H]1OCCc2c(-c3ccncn3)cccc21 (single isomer, unassigned) [Compound 74, hydrochloride salt]											> 30	+ (LOQ ≤ + <5%)	+ (LOQ ≤ + <5%)	+ (LOQ ≤ + <5%)	+ (LOQ ≤ + <5%)	++ (5% ≤ ++ <25%)	+ (LOQ ≤ + <5%)	+ (LOQ ≤ + <5%)	+ (LOQ ≤ + <5%)	+ (LOQ ≤ + <5%)
NC[C@@H]1OCCc2c(-c3ccon3)cccc21 (single isomer, unassigned) [Compound 88, hydrochloride salt]											10 to 30	+ (LOQ ≤ + <5%)	+ (LOQ ≤ + <5%)	++ (5% ≤ ++ <25%)	+ (LOQ ≤ + <5%)	++ (5% ≤ ++ <25%)	+ (LOQ ≤ + <5%)	+ (LOQ ≤ + <5%)	+ (LOQ ≤ + <5%)	+ (LOQ ≤ + <5%)
CNC[C@@H]1OCCc2c(-c3ncc[nH]3)cccc21 [Compound 110, (R)-1-(5-(1H-Imidazol-2-yl)isochroman-1-yl)-N-methylmethanamine hydrochloride salt]											10 to 30	+ (LOQ ≤ + <5%)	+ (LOQ ≤ + <5%)	++ (5% ≤ ++ <25%)	+ (LOQ ≤ + <5%)	+ (LOQ ≤ + <5%)	+ (LOQ ≤ + <5%)	+ (LOQ ≤ + <5%)	+ (LOQ ≤ + <5%)	+ (LOQ ≤ + <5%)
Cl.NC[C@@H]1OCCc2c(-c3ncco3)cccc21 [Compound 106, (R)-(5-(Oxazol-2-yl)isochroman-1-yl)methanamine hydrochloride salt]											10 to 30	+ (LOQ ≤ + <5%)	+ (LOQ ≤ + <5%)	+++ (25% ≤ +++ <50%)	++ (5% ≤ ++ <25%)	++ (5% ≤ ++ <25%)	+ (LOQ ≤ + <5%)	+ (LOQ ≤ + <5%)	+ (LOQ ≤ + <5%)	+ (LOQ ≤ + <5%)
NC[C@H]1OCCc2c(-c3ccno3)cccc21 (single isomer, unassigned) [Compound 93, hydrochloride salt]											10 to 30	+ (LOQ ≤ + <5%)	+ (LOQ ≤ + <5%)	+ (LOQ ≤ + <5%)	+ (LOQ ≤ + <5%)	+ (LOQ ≤ + <5%)	+ (LOQ ≤ + <5%)	+ (LOQ ≤ + <5%)	+ (LOQ ≤ + <5%)	+ (LOQ ≤ + <5%)
